Bounds are passed on as bounds.

The experiment deals with HT29 cells. Briefly: Inhibition of cell necrosis (CCK8 method), induced programmed necrosis of HT29 cells. The note with it: Homo sapiens, HT-29; rescue from necrosis induced by TNF-α 20 ng/mL, AT-406 1 μM, Z-VAD-FMK 20 μM; 16-20 hours; CCK-8, OD 450 nm. It counts as cell-based. Summed up:
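Rescue from programmed necrosis was scored by CCK-8 absorbance at 450 nm after 16-20 h of TNF-α (20 ng/mL), AT-406 (1 μM) and Z-VAD-FMK (20 μM) at 37 °C, 5% CO2. HT29 cells had received compound 30 min earlier across nine 4-fold dilutions (top 25000 nM final). IC50 came from % inhibition relative to uninduced and induced-only wells.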
Background: Tetrazolium dyes change colour on reduction, which living cells bring about.
One may read the IC50 as the concentration that gives 50% inhibition. In turn, `Cc1ccc(OCCCC(C)(C)O)cc1-c1ccnc(NC(=O)c2nnc(CC3CCC(F)(F)CC3)[nH]2)c1` [Example 178, 5-((4,4-difluorocyclohexyl)methyl)-N-(4-(5-((4-hydroxy-4-methylpentyl)oxy)-2-methylphenyl)pyridin-2-yl)-4H-1,2,4-triazole-3-carboxamide] came in with a 50% inhibitory concentration (IC50) not above 100 nM.
Then `CCOc1ccc(Cl)c(-c2cncc(NC(=O)c3nnc(Cc4ccccc4)[nH]3)c2)c1` [Example 105, 5-benzyl-N-(5-(2-chloro-5-ethoxyphenyl)pyridin-3-yl)-4H-1,2,4-triazole-3-carboxamide], with more than 10000 nM.
Then `CC(C)(O)CCCOc1ccc(Cl)c(-c2ccnc(NC(=O)c3nnc(Cc4cc(F)cc(C(F)(F)F)c4)[nH]3)c2)c1` [Example 348, N-(4-(2-chloro-5-((4-hydroxy-4-methylpentyl)oxy)phenyl)pyridin-2-yl)-5-(3-fluoro-5-(trifluoromethyl)benzyl)-4H-1,2,4-triazole-3-carboxamide], with 1000 to 10000 nM.
For the compound `CCOc1nc(-c2ccnc(NC(=O)c3nnc(Cc4ccccc4)[nH]3)c2)ccc1C` [Example 53, 5-benzyl-N-(6-ethoxy-5-methyl-[2,4′-bipyridin]-2′-yl)-4H-1,2,4-triazole-3-carboxamide], the IC50 was more than 10000 nM.
Then `COc1cccc(Cc2nnc(C(=O)Nc3cc(-c4cc(OCCCC(C)(C)O)ccc4C)ccn3)[nH]2)c1` [Example 186, 5-(3-methoxybenzyl)-N-(4-(5-((4-hydroxy-4-methylpentyl)oxy)-2-methylphenyl)pyridin-2-yl)-4H-1,2,4-triazole-3-carboxamide], with 100 to 1000 nM; and `O=C(Nc1cncc(-c2ccccc2Cl)c1)c1nnc(Cc2ccccc2)[nH]1` [Example 30, 5-benzyl-N-(5-(2-chlorophenyl)pyridin-3-yl)-4H-1,2,4-triazole-3-carboxamide], with more than 10000 nM; and `O=C(Nc1cc(-c2cc(OCCC3CCOCC3)ccc2Cl)ncn1)c1nnc(Cc2ccccc2)[nH]1` [Example 470, 5-benzyl-N-(6-(2-chloro-5-(2-(tetrahydro-2H-pyran-4-yl)ethoxy)phenyl)pyrimidin-4-yl)-4H-1,2,4-triazole-3-carboxamide], with not above 100 nM.
`COCCOc1ccc(Cl)c(-c2ccnc(NC(=O)c3nnc(CC4CCCC4)[nH]3)c2)c1` [Example 381, N-(4-(2-chloro-5-(2-methoxyethoxy)phenyl)pyridin-2-yl)-5-(cyclopentylmethyl)-4H-1,2,4-triazole-3-carboxamide] yielded a half-inhibitory concentration (IC50) not above 100 nM.
`CC(C)(O)CCCCOc1ccc(Cl)c(-c2ccnc(NC(=O)c3nnc(Cc4ccccc4)[nH]3)c2)c1` [Example 367, 5-benzyl-N-(4-(2-chloro-5-((5-hydroxyl-5-methylhexyl)oxy)phenyl)pyridin-2-yl)-4H-1,2,4-triazole-3-carboxamide] had an IC50 not above 100 nM.
Then `CCOCCOc1ccc(C(F)(F)F)c(-c2ccnc(NC(=O)c3nnc(Cc4ccccc4F)[nH]3)c2)c1` [Example 284, 5-(2-fluorobenzyl)-N-(4-(5-(2-ethoxyethoxy)-2-(trifluoromethyl)phenyl)pyridin-2-yl)-4H-1,2,4-triazole-3-carboxamide], with not above 100 nM.
For `CCC(O)(CC)CCCOc1ccc(C(F)(F)F)c(-c2ccnc(NC(=O)c3nnc(Cc4ccccc4F)[nH]3)c2)c1` [Example 261, 5-(2-fluorobenzyl)-N-(4-(5-((4-ethyl-4-hydroxyhexyl)oxy)-2-(trifluoromethyl)phenyl)pyridin-2-yl)-4H-1,2,4-triazole-3-carboxamide], the IC50 was not above 100 nM.
Then `O=C(Nc1cc(-c2cc(OCC3CCOCC3)ccc2Cl)c(Cl)cn1)c1nnc(CC2CCCCC2)[nH]1` [Example 425, N-(5-chloro-4-(2-chloro-5-((tetrahydro-2H-pyran-4-yl)methoxy)phenyl)pyridin-2-yl)-5-(cyclohexylmethyl)-4H-1,2,4-triazole-3-carboxamide], with 100 to 1000 nM.
Then `COCCCOc1ccc(Cl)c(-c2ccnc(NC(=O)c3nnc(Cc4ccccc4F)[nH]3)c2)c1` [Example 396, 5-(2-fluorobenzyl)-N-(4-(2-chloro-5-(3-methoxypropoxy)phenyl)pyridin-2-yl)-4H-1,2,4-triazole-3-carboxamide], with not above 100 nM; and `CC(C)(O)CCCOc1ccc(C(F)(F)F)c(-c2ccnc(NC(=O)c3nnc(Cc4ccccc4)[nH]3)c2)c1` [Example 194, 5-benzyl-N-(4-(5-((4-hydroxy-4-methylpentyl)oxy)-2-(trifluoromethyl)phenyl)pyridin-2-yl)-4H-1,2,4-triazole-3-carboxamide], with not above 100 nM; and `CCOc1ccc(OC)c(-c2ccnc(NC(=O)c3nnc(Cc4ccccc4)[nH]3)c2)c1` [Example 107, 5-benzyl-N-(4-(5-ethoxy-2-methoxyphenyl)pyridin-2-yl)-4H-1,2,4-triazole-3-carboxamide], with 1000 to 10000 nM.
Then `CCC(O)(CC)CCCOc1ccc(Cl)c(-c2cc(NC(=O)c3nnc(Cc4ccccc4F)[nH]3)ncc2F)c1` [Example 415, N-(4-(2-chloro-5-((4-ethyl-4-hydroxyhexyl)oxy)phenyl)-5-fluoropyridin-2-yl)-5-(2-fluorobenzyl)-4H-1,2,4-triazole-3-carboxamide], with not above 100 nM; and `O=C(Nc1cc(-c2cc(OCCC3CCOCC3)ccc2C(F)(F)F)ccn1)c1nnc(Cc2cccc(F)c2)[nH]1` [Example 307, 5-(3-fluorobenzyl)-N-(4-(5-(2-(tetrahydro-2H-pyran-4-yl)ethoxy)-2-(trifluoromethyl)phenyl)pyridin-2-yl)-4H-1,2,4-triazole-3-carboxamide], with not above 100 nM.
For `CCCCCCCCOc1ccc(C)c(-c2ccnc(NC(=O)c3nnc(Cc4ccccc4)[nH]3)c2)c1` [Example 100, 5-benzyl-N-(4-(2-methyl-5-(octyloxy)phenyl)pyridin-2-yl)-4H-1,2,4-triazole-3-carboxamide], the IC50 fell in the range of 100 to 1000 nM.
Compound `Cc1ccc(OCC(C)(C)O)cc1-c1ccnc(NC(=O)c2nnc(CC3CCCCC3)[nH]2)c1` [Example 119, 5-(cyclohexylmethyl)-N-(4-(5-(2-hydroxyl-2-methylpropoxy)-2-methylphenyl)pyridin-2-yl)-4H-1,2,4-triazole-3-carboxamide] showed an IC50 not above 100 nM.
Then `O=C(Nc1cc(-c2cc(OCC3CCOCC3)ccc2F)c(F)cn1)c1nnc(Cc2ccccc2F)[nH]1` [Example 327, N-(5-fluoro-4-(2-fluoro-5-((tetrahydro-2H-pyran-4-yl)methoxy)phenyl)pyridin-2-yl)-5-(2-fluorobenzyl)-4H-1,2,4-triazole-3-carboxamide], with not above 100 nM; and `O=C(Nc1cc(C2CCCCC2)ccn1)c1nnc(Cc2ccccc2)[nH]1` [Example 48, 5-benzyl-N-(4-cyclohexylpyridin-2-yl)-4H-1,2,4-triazole-3-carboxamide], with more than 10000 nM.
Then `O=C(Nc1cc(C2CCCC2)ccn1)c1nnc(Cc2ccccc2)[nH]1` [Example 47, 5-benzyl-N-(4-cyclopentylpyridin-2-yl)-4H-1,2,4-triazole-3-carboxamide], with more than 10000 nM; and `COc1ncc(C)cc1-c1ccnc(NC(=O)c2nnc(Cc3ccccc3)[nH]2)c1` [Example 50, 5-benzyl-N-(2-methoxy-5-methyl-[3,4′-bipyridin]-2′-yl)-4H-1,2,4-triazole-3-carboxamide], with 1000 to 10000 nM; and `CC(C)(O)CCCCOc1ccc(Cl)c(-c2ccnc(NC(=O)c3nnc(Cc4ccccc4F)[nH]3)c2)c1` [Example 368, 5-(2-fluorobenzyl)-N-(4-(2-chloro-5-((5-hydroxyl-5-methylhexyl)oxy)phenyl)pyridin-2-yl)-4H-1,2,4-triazole-3-carboxamide], with not above 100 nM.
Then `Cc1ccc(OC2COC2)cc1-c1ccnc(NC(=O)c2nnc(Cc3ccccc3)[nH]2)c1` [Example 86, 5-benzyl-N-(4-(2-methyl-5-(oxetan-3-yloxy)phenyl)pyridin-2-yl)-4H-1,2,4-triazole-3-carboxamide], with not above 100 nM.
On to `Cc1ccc(OCCCC(C)(C)O)cc1-c1ccnc(NC(=O)c2nnc(Cc3cccc(Cl)c3F)[nH]2)c1` [Example 491, 5-(3-chloro-2-fluorobenzyl)-N-(4-(5-((4-hydroxy-4-methylpentyl)oxy)-2-methylphenyl)pyridin-2-yl)-4H-1,2,4-triazole-3-carboxamide], for which the IC50 lay in the range of 100 to 1000 nM.
Then `CC(C)(O)CCCOc1ccc(Cl)c(-c2cc(NC(=O)c3nnc(CC4CCCC4)[nH]3)ncn2)c1` [Example 464, 5-(cyclopentylmethyl)-N-(6-(2-chloro-5-((4-hydroxy-4-methylpentyl)oxy)phenyl)pyrimidin-4-yl)-4H-1,2,4-triazole-3-carboxamide], with not above 100 nM; and `Cc1cc(Cc2nnc(C(=O)Nc3cc(-c4cc(OCCCC(C)(C)O)ccc4C)ccn3)[nH]2)ccc1F` [Example 208, 5-(4-fluoro-3-methylbenzyl)-N-(4-(5-((4-hydroxy-4-methylpentyl)oxy)-2-methylphenyl)pyridin-2-yl)-4H-1,2,4-triazole-3-carboxamide], with 100 to 1000 nM; and `Cc1ccc(OCCCC(C)(C)O)cc1-c1ccnc(NC(=O)c2nnc(CCC3CCCC3)[nH]2)c1` [Example 176, 5-(2-cyclopentylethyl)-N-(4-(5-((4-hydroxy-4-methylpentyl)oxy)-2-methylphenyl)pyridin-2-yl)-4H-1,2,4-triazole-3-carboxamide], with not above 100 nM.
Then `Cc1ccc(NC(=O)CCC(C)(C)O)cc1-c1ccnc(NC(=O)c2nnc(CC3CCCC3)[nH]2)c1` [Example 490, 5-(cyclopentylmethyl)-N-(4-(5-(4-hydroxy-4-methylvaleramido)-2-methylphenyl)pyridin-2-yl)-4H-1,2,4-triazole-3-carboxamide], with not above 100 nM.

The record behind these values is US12435060B2, “Acylamino bridged heterocyclic compound, and composition and application thereof” (BEIJING SCITECH-MQ PHARMACEUTICALS LIMITED, priority 2019, dated 2025).
